Experimental data as given in patent US20210330736A1 (UNIVERSITEIT VAN AMSTERDAM, priority 2018, published 2021).
Bridges are numbered along the chain shown (N, C = ends). [ ]: non-standard residue; d: D form. Abu = CC[C@H](N)C(=O)O

Assays:
Assay type in all cases: cell-based
[1] = system: Th Ser40 phosphorylation in mouse striatum slices; assay: Th Ser40 phosphorylation in mouse striatal slices ex vivo (WES automated western); conditions: for Fold change (average), P-S40 TH/TTH / effects in striatal slices (significance, in words): 1 h; for Fold change (average), P-S40 TH/TTH: WES; for effects in striatal slices (significance, in words): peptides 10 μM, mouse striatal slices
Source text: FIG. 13. Bay 60-7550 and Guanylin synergize to induce Ser40 phosphorylation Analysis of striatal slices treated with indicated compounds. WES data showing the phosphorylation of Th on Serine 40 is shown as well as total Th levels (a). From left to right are sequential striatal slices from rostral to caudal. Every slice is split into left and right hemisphere and either treated with compounds or vehicle. Left a positive and negative control is shown (Neuro2a cells transfected with Th or empty vector). The amount of Th Ser40 is corrected for the amount of total Th and shown in the bar graph (b). Each individual slice is indicated by a different symbol. Signficance is determined using a 2-tailed paired t-test. 2-tailed paired t-test: p=0.006.
Adult mice with an average of 5 weeks were sacrificed and the brain was quickly removed and sliced into coronal sections of 250 μm using a vibratome. Sections containing striatum were micro-dissected to remove non-striatal structures. Hemispheres were separated and one hemisphere was treated with compounds whereas the counter-hemisphere was treated with vehicle. Treatment of slices occurred in carbonized artificial cerebrospinal fluid (aCSF). After treatments, slices were lyzed in SDS containing sample buffer, sonicated, and heated at 95° C. Samples were analyzed on a WES automated western system (Protein Simple) according to manufacturer's instructions.
To investigate the effect of PDE2 inhibition in the mouse brain, an ex-vivo approach using brain slices was utilized. Coronal slices of mouse striatum were prepared and treated with BAY-60 7550 diluted in aCSF and subsequently analyzed by a WES automated western system. […] PDE2 is thus expressed in dopaminergic neurons and PDE2 protein and Th protein are present in the synaptic terminals of the neurons which project from the midbrain dopamine system to the striatum. To investigate the effects of GUCY2C ligands on Th activation, coronal slices of the mouse striatum were prepared, treated with guanylin and analyzed for Th Ser40 phosphorylation as was done for BAY-60-7550. […] The machinery for producing dopamine is thus present in the synaptic terminals where dopamine is released. […] Since both BAY 60-7550 and guanylin increased Th phosphorylation at 10μM, but not at 1 μM, we examined the effect of combining BAY 60-7750 and guanylin at 1μM.

GUCY2C = GUCY2C (Homo sapiens, UniProt P25092); assay: GUCY2C ligand analysis in HEK-293 cells transfected with GUCY2C and Th (WES); set-up: expressed in transfected cells; host or cells: HEK-293 cells transfected with GUCY2C and Th; conditions: 10 μM, Th Ser40 corrected for total Th, n=3
GUCY2C, sequence (P25092 24-1073): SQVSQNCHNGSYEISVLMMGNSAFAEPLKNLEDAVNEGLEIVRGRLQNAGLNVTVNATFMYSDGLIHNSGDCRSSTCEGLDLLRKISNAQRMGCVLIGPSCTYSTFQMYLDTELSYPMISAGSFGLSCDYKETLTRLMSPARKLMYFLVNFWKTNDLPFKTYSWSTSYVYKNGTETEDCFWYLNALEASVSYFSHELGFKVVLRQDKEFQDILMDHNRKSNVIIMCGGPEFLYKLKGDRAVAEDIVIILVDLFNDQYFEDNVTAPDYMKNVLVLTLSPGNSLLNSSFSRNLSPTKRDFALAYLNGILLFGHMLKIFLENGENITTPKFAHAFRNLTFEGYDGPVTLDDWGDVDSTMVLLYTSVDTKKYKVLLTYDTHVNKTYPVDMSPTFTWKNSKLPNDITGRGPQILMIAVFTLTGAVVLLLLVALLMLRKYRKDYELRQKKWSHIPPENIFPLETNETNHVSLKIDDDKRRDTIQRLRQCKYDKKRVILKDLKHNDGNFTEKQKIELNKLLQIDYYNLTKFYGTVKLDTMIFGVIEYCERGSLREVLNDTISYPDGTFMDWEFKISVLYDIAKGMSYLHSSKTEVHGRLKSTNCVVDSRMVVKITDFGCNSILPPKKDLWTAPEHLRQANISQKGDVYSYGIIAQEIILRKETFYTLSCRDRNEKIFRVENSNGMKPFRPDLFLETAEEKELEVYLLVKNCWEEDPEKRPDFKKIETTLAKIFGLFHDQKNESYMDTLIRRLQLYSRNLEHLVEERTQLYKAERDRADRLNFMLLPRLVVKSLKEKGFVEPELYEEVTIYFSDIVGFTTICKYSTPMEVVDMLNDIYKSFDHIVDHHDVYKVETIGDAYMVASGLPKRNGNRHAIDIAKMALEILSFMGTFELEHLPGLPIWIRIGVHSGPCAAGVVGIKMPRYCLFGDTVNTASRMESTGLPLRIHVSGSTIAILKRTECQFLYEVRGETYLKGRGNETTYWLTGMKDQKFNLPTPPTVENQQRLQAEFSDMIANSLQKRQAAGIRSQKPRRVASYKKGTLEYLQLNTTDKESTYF
Protocol: Potential GUCY2C ligands were tested in HEK-293 cells transfected with GUCY2C and Th and subsequently treated and analyzed by automated western (WES). Th Ser40 was corrected for total Th. Controls were set to 1. Significance is determined by two-tailed t-test on n=3. * p<0.05, **p<0.01, ***p<0.005, “”p<0.001. A) Guanylin control 10 μM. B) Peptides 1 to 5 in an amount of 10 μM. C) Peptides 6 to 11 in an amount of 10 μM.
We designed novel peptides with different activities with respect to endogenous GUCY2C ligands (Table 3). The peptides were analyzed in Th and GUCY2C transfected HEK-293 cells and subsequently tested ex-vivo in mice striatal slices. […] We synthezised uroguanylin and heat stable toxin as controls for the synthezised peptides and they thus are from a different source than the commercially available uroguanylin and heat stable toxin. […] Possibly the effects of the peptides can differ depending on the area in the striatum which is stimulated.

[2] = system: Ser40 phosphorylation of Th in HEK cells transfected with Th; assay: Th Ser40 phosphorylation in HEK cells transfected with Th (western blot); conditions: HEK transfected with Th, 500 μM, 48 hours post-plating
Protocol: FIG. 3. HEK cells are a suitable model to study GUCY2C-induced Ser40 phosphorylation. (A) RT-qPCR data from intact HEK extracts. Input material was 10 ng of total RNA. Cp corresponds to the cycle number in which the expression starts to be considered positive. (−) represents the water control, which is negative in every case. (B) HEK cultures were transfected with Th and treated with a cGMP analogue 48 hours post-plating. Changes in Ser40 phosphorylation were studied. The graph represents the statistical analysis (n=6; Mean±SEM). Unpaired Student's t-test (p-value: ****<0.0001). Hereon, ‘Fold Change’ corresponds to the ratio P-Ser40/Total Th.
(§1) FIG. 7. PDE2a is an important effector regulating Ser40 phosphorylation in MN9D cells. BAY-60-7550 dose-curve and representative examples in MN9D (n=9, red) and HEK cells (n=4, blue) (Mean±SEM). Cells were treated with various concentrations of BAY 60-7750 and analyzed for Th phosphorylation on Ser40 , total Th and actin.
HEK cells were maintained in 100-mm Petri dishes and grown in DMEM medium supplemented with L-glutamine, penicillin-streptomycin (Pen&Strep) and 10% heat-inactivated fetal bovine serum (HIFBS). Growing conditions were 37° C. and 5% CO2. For every-other-day passages, HEK cultures were split at a 1:3 dilution. From Friday to Monday, the split proportion was doubled for all cell lines. For passaging, cultures were rinsed with PBS and incubated with 1 mL of trypsin during 5 minutes. Cells were resuspended in growth medium and finally split to the proper dilution. The experiments were performed in 12-well plates. For immunocytochemistry analysis, sterile 18-mm coverslips were added prior to the plating. 500 !μL of cell resuspension was seeded in each well. If experiments were to be performed 48 hours after the plate preparation, 1:5 was the seeding ratio for HEK cells. When the experiments took place 96 hours post-plating, 1:7 was the working dilution for HEK cells. Unless otherwise stated, HEK cultures were processed 96 hours post-plating.
HEK cells were transfected using the calcium-phosphate method. […]

[3] = system: Ser40 phosphorylation of Th in MN9D cells; assay: Th Ser40 phosphorylation in MN9D cells (western blot, P-Ser40/total Th)
Protocol: FIG. 6. PDE2a is an important effector regulating Ser40 phosphorylation in MN9D cells. MN9D cultures were treated with IBMX or BAY-60-7550 (50 μM), a PDE2A-selective inhibitor. Cells were analyzed on western-blot for phosphorylation of Ser40 , total Th, and actin.
as §1
FIG. 10. PDE11 is an important effector regulating Ser40 phosphorylation in MN9D cells. BC 11-38 dose-curve and representative examples in MN9D (n=2) (Mean±SEM). IBMX served as a control and was used at 100 μM. Cell were analyzed for phosphorylation of Th on Ser40 and total Th was used as a loading control to determine phosphorylation specific effects.
24 hours prior to the administration of the different compounds, cells were serum-starved with DMEM medium supplemented with L-glutamine and Pen&Strep. Unless otherwise stated, the concentration of the different reagents is reported in Table 1 and the duration of the treatment was 1 hour.
Cells were harvested in 150 μL of Laemmli sample buffer (2% SDS, 10% glycerol, 60 mM Tris-Cl pH 6.8, 0.01% bromophenol blue, 50 mM freshly added DTT). Wells were duplicated in pairs and pooled into the same tubes to minimize variability. Samples were sonicated at maximum potency during 3 minutes, heated at 95° C. for 5 minutes and spun down briefly before loading. Running gels were 10% polyacrylamide except for the GUCY2C detection, which was optimal in 7% gels (375 mM Tris-Cl pH 8.8, 0.1% APS, 0.1% SDS, 0.04% TEMED). Stacking gels were 5% polyacrylamide (125 mM Tris-Cl pH 6.8, 0.1% APS, 0.1% SDS, 0.04% TEMED).
Up to 35 μL of sample was loaded in each slot and run in the presence of tris-glycine buffer and 0.1% SDS. Running conditions were 100 V during the first 20 minutes, followed by 160 V until the migration front reached the bottom of the gel. The transference was performed at 100 V onto 0.2 μm nitrocellulose membranes, in the presence of tris-glycine buffer and 20% methanol. The blotting duration was 140 minutes except for the detection of GUCY2C, which was transferred during 240 minutes in the presence of 0.1% SDS. Membranes were then submerged in Ponceau S solution to check blotting efficiency (0.1% Ponceau S, 5% acetic acid). After several washings with DEMI water, blots were incubated during 1 hour in the presence of 5% milk powder and TBS-T (154 mM NaCl, 49.5 mM Tris-Cl pH 7.4, 0.1% Tween-20). The incubation with the primary antibodies was performed O/N at 4° C. in TBS-T (consult Table 2 for dilution and species). Membranes were rinsed in TBS-T during 1 hour to remove the excess antibody. The incubation with the secondary antibodies took place during 60 minutes at room temperature (1:10,000 dilution in TBS-T, with the exception of the goat secondary which was diluted 1:20,000). Secondary antibodies were fused to the horseradish peroxidase and raised against the host species of the primary antibody. After additional washings during 1 hour, blots were exposed to an enhanced chemiluminescence solution and the signal was detected using an Odyssey imager (LI-COR). Band densitometry was performed with LI-COR Image Studio Lite. For graph quantifications, ‘Fold Change’ represents the ratio P-Ser40/Total Th. Statistical comparisons between pair of groups correspond to unpaired Student's t-tests, as calculated with GraphPad Prism. Asterisks denote the following p-values: *<0.05, **<0.01, ***<0.001, ****<0.0001.
IBMX is a non-selective PDE inhibitor, therefore we investigated the effect of inhibiting a specific PDE selectively on Ser40 phosphorylation. To study the effect of PDE2A inhibition on Ser40 phosphorylation we treated the dopaminergic cell-line MN9D with Bay BAY-60-7550 and analyzed the effects. […]

Compound	Fold change (average), P-S40 TH/TTH ([1]; 10 μM, striatal slices)	Ser40 phosphorylation in HEK-293 cells (significance, in words) (GUCY2C)	other results
H-QEECEL[Abu]INMACTGY-OH (cysteine pairing not given here) [Peptide 6]	0.88	significant effects	
H-QEECELCINMACTGCL-OH (disulfide 4-12, 7-15; ends not checked) [Peptide 8]	0.89	significant effects	
H-NDDCELCVNVACTGCL-OH (disulfide 4-12, 7-15; SMILES CC(C)C[C@H](NC(=O)[C@@H]1CSSC[C@@H]2NC(=O)[C@H](CC(C)C)NC(=O)[C@H](CCC(=O)O)NC(=O)[C@@H](NC(=O)[C@H](CC(=O)O)NC(=O)[C@H](CC(=O)O)NC(=O)[C@@H](N)CC(N)=O)CSSC[C@H](NC(=O)[C@H](C)NC(=O)[C@H](C(C)C)NC(=O)[C@H](CC(N)=O)NC(=O)[C@H](C(C)C)NC2=O)C(=O)N[C@@H]([C@@H](C)O)C(=O)NCC(=O)N1)C(=O)O) [Peptide 1]		did not show any significant effects	effects in striatal slices (significance, in words) [1]: did not show any significant effects
Nc1nc2c(nc(Br)n2[C@@H]2O[C@@H]3COP(=O)(O)O[C@H]3[C@H]2O)c(=O)[nH]1 [Peptide 8-Bromo-cGMP, 8-Bromo-cGMP]			P-Ser40 levels upon compound administration [2]: small but significant increase
H-NTFYCCELCCNPACAGCY-OH (disulfide 5-10, 6-14, 9-17; ends not checked) [Peptide 9]	1.37	significant effects	
CCCSc1nc2c(c(=O)n1-c1ccccc1)SCC2 [BC 11-38]			performance versus IBMX on Ser40 phosphorylation ([3]; IBMX 100 μM as control): performed less well than the positive control IBMX; phosphorylation of Th on Ser40 as compared to total Th (in words) ([3]; dose-curve): increase in the phosphorylation of Th on Ser40
H-NDCCELCCNVACTGCL-OH [Peptide 4]	1.00	significant effects	
H-NDDCELCVNVVCTGCL-OH (disulfide 4-12, 7-15; ends not checked) [Peptide 5]	1.22		
H-NTFYCCELCCAPACTGCY-OH [Peptide 10]	1.44	significant effects	
H-NTFYCCELCCNPaCAGCY-OH [Peptide 11]	1.20	significant effects	
H-NDDCELCVNVACTGCLL-OH (disulfide 4-12, 7-15; ends not checked) [Peptide 2]	2.23	significant effects	rank of fold change in striatal slices ([1]; 10 μM, striatal slices): largest fold change; effects in striatal slices (significance, in words) [1]: not significant
